Assays:
S1P1 [1] = biological target: T1, S1P1 (Homo sapiens (Human), UniProt P21453); experiment: Receptor [35S] GTPγS Binding Assay, S1P1; type: biochemical; conditions: membranes from S1P1/CHO cells
Method: Membranes prepared from S1P1/CHO cells or EDG3-Ga15-b1a HEK293T cells were added to the compound plate (40 μl/well, final protein 3 μg/well) with MULTIDROP®. [^35S] GTP (1250 Ci/mmol, Perkin Elmer) was diluted in assay buffer: 20 mM HEPES, pH7.5, 10 mM MgCl2, 150 mM NaCl, 1 mM EGTA, 1 mM DTT, 10 μM GDP, 0.1% fatty acid free BSA, and 10 μg/ml Saponin to 0.4 nM. 40 μl of the [^35S] GTP solution was added to the compound plate with a final concentration of 0.2 nM. The reaction was kept at room temperature for 45 min. At the end of incubation, all the mixtures in the compound plate were transferred to Millipore 384-well FB filter plates via the VELOCITY 11® Vprep liquid handler. The filter plate was washed with water 4 times by using the manifold Embla plate washer and dried at 60° C. for 45 min. MicroScint 20 scintillation fluid (30 μl) was added to each well for counting on the Packard TOPCOUNT®. […] The results in Table B were rounded to two digits. […]

S1P1 [2] = biological target: T1, S1P1; experiment: S1P1 Binding Assay; conditions: 33P-S1P ligand, membranes from CHO cells expressing human S1P1
Method: Membranes were prepared from CHO cells expressing human S1P1. Cells pellets (1×10^8 cells/pellet) were suspended in buffer containing 20 mM HEPES, pH 7.5, 50 mM NaCl, 2 mM EDTA and Protease Inhibitor cocktail (Roche), and disrupted on ice using the Polytron homogenizer. The homogenate was centrifuged at 20,000 rpm (48,000 g) and the supernatant was discarded. The membrane pellets were resuspended in buffer containing 50 mM HEPES, pH 7.5, 100 mM NaCl, 1 mM MgCl2, 2 mM EDTA and stored in aliquots at […] after protein concentration determination.
Membranes (2 μg/well) and 0.03 nM final concentration of 33P-S1P ligand (1 mCi/ml, American Radiolabeled Chemicals) diluted in assay buffer (50 mM HEPES, pH7.4, 5 mM MgCl2, 1 mM CaCl2, 0.5% fatty acid free BSA, 1 mM NaF) were added to the compound plates (384 Falcon v-bottom plate (0.5 μl/well in a 11 point, 3-fold dilution). Binding was performed for 45 minutes at room temperature, terminated by collecting the membranes onto 384-well Millipore FB filter plates, and radioactivity was measured by TOPCOUNT®. The competition data of the test compounds over a range of concentrations was plotted as percentage inhibition of radioligand specific binding. The IC50 is defined as the concentration of competing ligand needed to reduce specific binding by 50%.
Table A below lists S1P1 Binding IC50 values from the following examples of this invention measured in the S1P1 binding assay described hereinabove. The results in Table A were rounded to two digits.

S1P3 = S1P3 (Homo sapiens (Human), UniProt Q99500); experiment: Receptor [35S] GTPγS Binding Assay, S1P3; type: biochemical; conditions: membranes from EDG3-Ga15-b1a HEK293T cells
Method: Compounds were loaded in a 384 Falcon v-bottom plate (0.5 μl/well in a 11 point, 3-fold dilution). Membranes prepared from S1P1/CHO cells or EDG3-Ga15-b1a HEK293T cells were added to the compound plate (40 μl/well, final protein 3 μg/well) with MULTIDROP®. [^35S] GTP (1250 Ci/mmol, Perkin Elmer) was diluted in assay buffer: 20 mM HEPES, pH7.5, 10 mM MgCl2, 150 mM NaCl, 1 mM EGTA, 1 mM DTT, 10 μM GDP, 0.1% fatty acid free BSA, and 10 μg/ml Saponin to 0.4 nM. 40 μl of the [^35S] GTP solution was added to the compound plate with a final concentration of 0.2 nM. The reaction was kept at room temperature for 45 min. At the end of incubation, all the mixtures in the compound plate were transferred to Millipore 384-well FB filter plates via the VELOCITY 11® Vprep liquid handler. The filter plate was washed with water 4 times by using the manifold Embla plate washer and dried at 60° C. for 45 min. MicroScint 20 scintillation fluid (30 μl) was added to each well for counting on the Packard TOPCOUNT®. EC50 is defined as the agonist concentration that corresponds to 50% of the Ymax (maximal response) obtained for each individual compound tested. The results in Table B were rounded to two digits.
A smaller value for GTPγS S1P1 EC50 value indicated greater activity for the compound in the GTPγS S1P1 binding assay. A larger value for the GTPγS S1P3 EC50 value indicated less activity in the GTPγS S1P3 binding assay.

circulating lymphocytes = experiment: Blood Lymphocyte Reduction Assay (BLR) in Rodents; type: in vivo; conditions: Lewis rats, oral, vs vehicle group
Method: Lewis rats were dosed orally with test article (as a solution or suspension in the vehicle) or vehicle alone (polyethylene glycol 300, “PEG300”). Blood was drawn at 4 hr and 24 h by retro-orbital bleeding. Blood lymphocyte counts were determined on an ADVIA 120 Hematology Analyzer (Siemens Healthcare Diagnostics). The results were measured as a reduction in the percentage of circulating lymphocytes as compared to the vehicle treated group at the 4 hr and 24 hr measurement. The results represent the average results of all animals within each treatment group (n=3-4).
The following examples were tested in the Blood Lymphocyte Reduction assay (BLR) described hereinabove and the results are shown in Table C for rats.

S1P3, sequence (Q99500 whole entry): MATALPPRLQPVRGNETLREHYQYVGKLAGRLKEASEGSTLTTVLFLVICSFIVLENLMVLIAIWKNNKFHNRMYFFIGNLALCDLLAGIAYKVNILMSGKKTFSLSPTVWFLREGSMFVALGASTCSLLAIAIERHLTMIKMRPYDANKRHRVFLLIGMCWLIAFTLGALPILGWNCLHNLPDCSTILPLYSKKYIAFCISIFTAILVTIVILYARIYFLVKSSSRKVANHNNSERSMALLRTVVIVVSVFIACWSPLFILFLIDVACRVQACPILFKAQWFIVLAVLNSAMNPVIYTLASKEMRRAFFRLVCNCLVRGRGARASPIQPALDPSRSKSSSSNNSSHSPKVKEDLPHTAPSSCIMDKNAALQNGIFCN
T1 sequence (P21453 whole entry): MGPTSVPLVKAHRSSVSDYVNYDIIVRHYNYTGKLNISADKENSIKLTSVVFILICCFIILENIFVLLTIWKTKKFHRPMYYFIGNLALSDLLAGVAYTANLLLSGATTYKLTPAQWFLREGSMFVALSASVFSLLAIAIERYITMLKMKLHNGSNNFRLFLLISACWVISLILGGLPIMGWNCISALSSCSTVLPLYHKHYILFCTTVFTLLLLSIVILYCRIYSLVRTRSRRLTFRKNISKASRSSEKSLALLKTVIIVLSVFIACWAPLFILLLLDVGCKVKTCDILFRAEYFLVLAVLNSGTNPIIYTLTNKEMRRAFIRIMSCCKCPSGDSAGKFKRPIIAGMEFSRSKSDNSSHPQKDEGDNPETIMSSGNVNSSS

Row | Compound | EC50 (S1P1 [1]) [µM] | IC50 (S1P1 [2]) [µM] | EC50 (S1P3) [µM] | % REDUCTION IN LYMPHOCYTES AT 4 HR. (circulating lymphocytes; 1.0 mg/kg) [%] | % REDUCTION IN LYMPHOCYTES AT 4 HR. (circulating lymphocytes; 20.0 mg/kg) [%] | % REDUCTION IN LYMPHOCYTES AT 4 HR. (circulating lymphocytes; 10.0 mg/kg) [%]
1 | O=C(O)C1CN(Cc2ccc(-c3noc(COCC4(c5ccc(Cl)cc5)CCC4)n3)c(F)c2)C1 [Example 143, 1-(4-(5-(((1-(4-chlorophenyl)cyclobutyl)methoxy)methyl)-1,2,4-oxadiazol-3-yl)-3-fluorobenzyl)-3-azetidinecarboxylic acid] | 0.0175 | 0.00972 | 3.73 |  |  | 
2 | O=C(O)C1CN(Cc2ccc(-c3noc(CCCC4(c5ccc(Cl)cc5)CCCCC4)n3)cc2)C1 [Example 98, 1-(4-(5-(3-(1-(4-chlorophenyl)cyclohexyl)propyl)-1,2,4-oxadiazol-3-yl)benzyl)-3-azetidinecarboxylic acid] | 0.0007 | 0.00054 | 0.0274 |  |  | 
3 | O=C(O)C1CN(Cc2ccc(-c3noc(COCC4(c5ccc(Cl)cc5)CCC4)n3)c(Cl)c2)C1 [Example 141, 1-(3-chloro-4-(5-(((1-(4-chlorophenyl)cyclobutyl)methoxy)methyl)-1,2,4-oxadiazol-3-yl)benzyl)-3-azetidinecarboxylic acid] | 0.0507 | 0.012 | 5.24 |  |  | 
4 | O=C(O)C1CN(Cc2ccc(-c3noc(CCC4(c5ccccc5)CCCCC4)n3)cc2)C1 [Example 1, 1-(4-(5-(2-(1-phenylcyclohexyl)ethyl)-1,2,4-oxadiazol-3-yl)benzyl)azetidine-3-carboxylic acid] |  |  |  | 75 |  | 
5 | O=C(O)C1CN(Cc2ccc(-c3noc(/C=C/C4(c5ccc(Cl)cc5)CCCCC4)n3)cc2)C1 [Example 92, 1-(4-(5-((E)-2-(1-(4-chlorophenyl)cyclohexyl)vinyl)-1,2,4-oxadiazol-3-yl)benzyl)-3-azetidinecarboxylic acid] | 0.0369 | 0.0456 | 0.421 |  |  | 
6 | O=C(O)C1CN(Cc2ccc(-c3noc(/C=C/C4(c5ccc(C(F)(F)F)cc5)CCCCC4)n3)cc2)C1 [Example 88, 1-(4-(5-((E)-2-(1-(4-(trifluoromethyl)phenyl)cyclohexyl)vinyl)-1,2,4-oxadiazol-3-yl)benzyl)-3-azetidinecarboxylic acid] |  | 0.0267 |  |  |  | 
7 | O=C(O)C1CN(Cc2ccc(-c3noc(COCC4(c5ccc(F)cc5)CCCCC4)n3)cc2)C1 [Example 18, 1-(4-(5-(((1-(4-fluorophenyl)cyclohexyl)methoxy)methyl)-1,2,4-oxadiazol-3-yl)benzyl)azetidine-3-carboxylic acid] | 0.00078 | 0.00031 | 0.00923 |  |  | 
8 | O=C(O)C1CN(Cc2ccc(-c3noc(C(F)(F)C(O)C4(c5ccc(Cl)cc5)CC4)n3)cc2)C1 (stereo not drawn) [Example 85, 1-(4-(5-(2-(1-(4-chlorophenyl)cyclopropyl)-1,1-difluoro-2-hydroxyethyl)-1,2,4-oxadiazol-3-yl)benzyl)-3-azetidinecarboxylic acid] | 0.7 | 0.135 | > 62.5 |  |  | 
9 | O=C1NC(=O)C2(CN(Cc3ccc(-c4noc(COCC5(c6ccc(Cl)cc6)CCC5)n4)cc3)C2)N1 [Example 19, 2-(4-(5-(((1-(4-chlorophenyl)cyclobutyl)methoxy)methyl)-1,2,4-oxadiazol-3-yl)benzyl)-2,5,7-triazaspiro[3.4]octane-6,8-dione] | 1.27 | 0.477 | 5.38 |  |  | 
10 | O=C(O)C[C@@H]1CC(c2ccc(-c3noc(CCC4(c5ccccc5)CCCCC4)n3)cc2)=NO1 [Example 133, (S)-(3-(4-(5-(2-(1-phenylcyclohexyl)ethyl)-1,2,4-oxadiazol-3-yl)phenyl)-4,5-dihydro-5-isoxazolyl)acetic acid] |  |  |  |  | 84 | 
11 | Cc1cc(-c2noc(/C=C/C3(c4ccc(Cl)cc4)CCCCC3)n2)cc(C)c1OC[C@@H](O)CO [Example 52, (2S)-3-(4-(5-((E)-2-(1-(4-chlorophenyl)cyclohexyl)vinyl)-1,2,4-oxadiazol-3-yl)-2,6-dimethylphenoxy)-1,2-propanediol] | 0.0081 | 0.00575 | 0.139 |  |  | 
12 | Cc1cc(-c2noc(/C(F)=C/C3(c4ccc(Cl)cc4)CC3)n2)cc(C)c1OC[C@@H](O)CO [Example 48, (2S)-3-(4-(5-((Z)-2-(1-(4-chlorophenyl)cyclopropyl)-1-fluorovinyl)-1,2,4-oxadiazol-3-yl)-2,6-dimethylphenoxy)-1,2-propanediol] |  |  |  |  |  | 83
13 | O=C(O)C1CN(Cc2ccc(-c3noc(CCC4(c5cccnc5)CCOCC4)n3)cc2)C1 [Example 108, 1-(4-(5-(2-(4-(3-pyridinyl)tetrahydro-2H-pyran-4-yl)ethyl)-1,2,4-oxadiazol-3-yl)benzyl)-3-azetidinecarboxylic acid] | 7.36 | 0.861 | > 62.5 |  |  | 
14 | O=C(O)C1CN(Cc2ccc(-c3noc(CCCC4(c5ccc(F)cc5)CCCCC4)n3)cc2)C1 [Example 9, 1-(4-(5-(3-(1-(4-fluorophenyl)cyclohexyl)propyl)-1,2,4-oxadiazol-3-yl)benzyl)azetidine-3-carboxylic acid] | 0.00023 | 0.00047 | 0.0164 |  |  | 
15 | O=C(O)C1CN(Cc2ccc(-c3noc(C/C=C/C4(c5ccc(F)cc5)CCCCC4)n3)cc2)C1 [Example 100, 1-(4-(5-((2E)-3-(1-(4-fluorophenyl)cyclohexyl)-2-propen-1-yl)-1,2,4-oxadiazol-3-yl)benzyl)-3-azetidinecarboxylic acid] | 0.00041 | 0.0034 | 0.0117 |  |  | 
16 | Cc1cc(-c2noc(CCC3(c4ccc(F)cc4)CCCCC3)n2)cc(C)c1OC[C@@H](O)CO [Example 4] | 0.00051 | 0.00012 | 0.0102 |  |  | 
17 | O=C(O)C1CN(Cc2ccc(-c3noc(/C=C/C4(Cc5ccccc5)CCC4)n3)cc2)C1 [Example 103, 1-(4-(5-((E)-2-(1-benzylcyclobutyl)vinyl)-1,2,4-oxadiazol-3-yl)benzyl)-3-azetidinecarboxylic acid] | 0.0171 |  | 1.49 |  |  | 
18 | O=C(O)C1CN(Cc2ccc(-c3noc(CCCC4(c5ccccc5)CCCCC4=O)n3)cc2)C1 (stereo not drawn) [Example 11, 1-(4-(5-(3-(2-oxo-1-phenylcyclohexyl)propyl)-1,2,4-oxadiazol-3-yl)benzyl)azetidine-3-carboxylic acid] | 0.00217 | 0.00168 | 0.0586 |  |  | 
19 | O=C(O)C1CN(Cc2ccc(-c3noc(CCC4(c5ccc(F)cc5)CCCCC4)n3)cc2)C1 [Example 63, 1-(4-(5-(2-(1-(4-fluorophenyl)cyclohexyl)ethyl)-1,2,4-oxadiazol-3-yl)benzyl)-3-azetidinecarboxylic acid] | 0.00274 | 0.00021 | 0.00494 |  |  | 

From patent publication US8822510B2, “Substituted 3-phenyl-1,2,4-Oxadiazole compounds” (Bristol-Myers Squibb Company, priority 2010, dated 2014)
